pEC50: −log10 of the molar value. Each block holds one compound with its values, some of them ahead of it.
Key:
[1] = molecular target: T1, human CaSR (Homo sapiens, UniProt P41180, E1011Q); experiment: Evaluation (1) and (2) of CaSR agonist activity (Ca2+ fluorescence in transfected 293E cells); assay type: cell-based; settings: 293E cells transfected with hCaSR/pcDNA3.1; Calcium 4/5 Assay Kit; methods (1) and (2)
T1 construct: expressed in transfected cells; host or cells: 293E cells (EBNA1-expression HEK293 cells, ATCC No. CRL-10852), transient transfection of hCaSR/pcDNA3.1
T1 sequence (P41180 20-1078 E1011Q): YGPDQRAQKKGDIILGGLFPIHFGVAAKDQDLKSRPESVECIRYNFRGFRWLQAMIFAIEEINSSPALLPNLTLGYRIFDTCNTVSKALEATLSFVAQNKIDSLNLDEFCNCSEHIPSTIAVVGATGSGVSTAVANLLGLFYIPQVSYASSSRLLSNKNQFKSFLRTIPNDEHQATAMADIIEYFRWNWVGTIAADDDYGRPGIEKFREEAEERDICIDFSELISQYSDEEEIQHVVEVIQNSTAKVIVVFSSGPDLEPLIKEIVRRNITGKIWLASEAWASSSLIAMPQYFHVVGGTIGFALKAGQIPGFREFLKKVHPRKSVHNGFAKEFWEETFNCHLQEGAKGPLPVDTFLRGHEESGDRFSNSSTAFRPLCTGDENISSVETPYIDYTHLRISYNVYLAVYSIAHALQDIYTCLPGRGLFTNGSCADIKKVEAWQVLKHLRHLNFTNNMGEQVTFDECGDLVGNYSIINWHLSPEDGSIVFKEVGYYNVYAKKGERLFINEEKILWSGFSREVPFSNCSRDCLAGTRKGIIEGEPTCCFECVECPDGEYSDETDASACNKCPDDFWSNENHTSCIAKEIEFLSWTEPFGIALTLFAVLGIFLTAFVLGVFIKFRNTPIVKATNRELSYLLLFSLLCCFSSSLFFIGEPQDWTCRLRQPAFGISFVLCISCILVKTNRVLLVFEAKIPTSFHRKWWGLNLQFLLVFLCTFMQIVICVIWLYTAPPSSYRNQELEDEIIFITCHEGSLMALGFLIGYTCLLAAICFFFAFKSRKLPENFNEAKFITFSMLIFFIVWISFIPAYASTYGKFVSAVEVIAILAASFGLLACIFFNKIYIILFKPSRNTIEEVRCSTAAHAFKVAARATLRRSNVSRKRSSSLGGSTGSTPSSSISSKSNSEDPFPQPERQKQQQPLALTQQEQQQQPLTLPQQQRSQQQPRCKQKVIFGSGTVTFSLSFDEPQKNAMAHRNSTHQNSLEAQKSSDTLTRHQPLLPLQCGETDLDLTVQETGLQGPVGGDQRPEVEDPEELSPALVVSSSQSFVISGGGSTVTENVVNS
Protocol: (§1) 293E Cells (EBNA1-expression HEK293 cells, ATCC No. CRL-10852) were cultivated in DMEM/Ham's-F12 (3.15/ml Glucose-containing Dulbecco's modified Eagle medium; available from NAKARAI TESK Company) containing 10% fetal calf serum in the presence of 200 μg/ml of G418 (available from Genetisine Company). The cultured cells were inoculated in F25 flask at a density of 3×10^6 cells/10 ml, then the content of the flask was allowed to stand for 24 hours in a CO2 incubator (5% CO2, 37° C.), and then the human CaSR-expression plasmid hCaSR/pcDNA3.1 was transfected using a transfection agent Fugene 6 (available from Roche Company). After allowing the flask to stand in a CO2 incubator for 6 to 7 hours, the cells were recovered using 10% fetal calf serum-containing DMEM/Ham's-F12 and then inoculated in each well of a poly-D-lysine coat 96-well plate (BD-Biocoat) at a density of 70,000 cells/well.
(§2) After allowing the well plate to stand in a CO2 incubator for 24 hours, the culture medium was removed from each well of the 96-well plate to which the cells had been inoculated, and a solution of Ca^2+ fluorescent indicator Calcium 4 Assay Kit (available from Molecular Devices Company) in an Assay Buffer (containing 146 mM of NaCl, 5 mM of KCl, 1 mM of MgSO4, 1 mg/ml of Glucose, 20 mM of HEPES (pH 7.2), and 0.75 to 1.25 mM of CaCl2) in an amount of 200 μl/well was added to each well, and each well was allowed to stand at 37° C. for one hour and then at room temperature for 10 minutes to thus make the cells take the indicator.
(§3) To each well of the 96-well plate, a solution of a test compound in a 0.1% BSA-containing Assay Buffer in an amount of 50 μl/well was added, and the wells were inspected for any change in the intensity of fluorescent light rays emitted therefrom for 3 minutes using FLEX Station (available from Molecular Devices Company).
(§4) Method for the Calculation of EC50
(§5) The difference (RFU (Max-Min) between the maximum and minimum intensities of fluorescent light rays observed before and after the addition of the test compound were calculated according to the automatic calculation by the FLEX Station. In this respect, the activity rate of a test compound was calculated, while the RFU (Max-Min) value observed when adding a test compound in a maximum concentration was defined to be 100% and the RFU (Max-Min) value observed when using a 0.1% BSA-containing Assay Buffer free of any added test compound was defined to be 0%, then the curve-fitting was carried out using a software Xfit for spreadsheet or a GraphPad Prism to thus determine each corresponding EC50 value as the concentration of each test compound observed at the activity rate of 50%.
as §1, with “plasmid:” for “plasmid”, “384-well” for “96-well”, “2×10^6” for “70,000”, “cells/well. […]” for “cells/well.”

[2] = system: panelists; experiment: Quantitative organoleptic evaluation of kokumi-imparting activity in cow's milk; assay type: in vivo, human; settings: for Intensity of Kokumi After Taste / Intensity of Kokumi Initial-Middle Taste: score scale -5 to +5, n=5
Protocol: The quantitative organoleptic evaluation test was carried out according to the following procedures: The intensity of the kokumi-imparting activity of the test compound was determined using a mixture obtained by adding, to the commercially available cow's milk (fat content: 3.6%), […] The pH value of the samples used was adjusted to that of the control free of any test compound (i.e., the pH value of the latter +0.2). […] The scoring was carried out using the linear-scale technique, in which each corresponding score was plotted on a straight line on which the scores equal to −5, 0 and +5 had been expressly specified. […] In this respect, the term “initial-middle taste” means the taste detected during the term ranging from 0 to 5 seconds after keeping each sample in each panelist's mouth and the term “after taste” means that detected thereafter.

[3] = molecular target: T2, human CaSR (Homo sapiens, UniProt P41180); experiment: Evaluation (1) and (2) of CaSR agonist activity (Ca2+ fluorescence in transfected 293E cells); assay type: cell-based; settings: ratio to γ-Glu-Cys
T2 construct: expressed in transfected cells; host or cells: 293E cells (EBNA1-expression HEK293 cells, ATCC No. CRL-10852), transient transfection of hCaSR/pcDNA3.1
T2 sequence (P41180 20-1078 E1011Q): T1 sequence (P41180 20-1078 E1011Q)
Protocol: as §1, §2, §3, §4, §5
as §1, with “plasmid:” for “plasmid”, “384-well” for “96-well”, “2×10^6” for “70,000”, “cells/well. […]” for “cells/well.”

[4] = system: panelists; experiment: Quantitative organoleptic evaluation of kokumi-imparting activity in umami/salty solution; assay type: in vivo, human; settings: for Intensity of Kokumi After Taste / Intensity of Kokumi Initial-Middle Taste: score scale -5 to +5, n=5
Protocol: The scoring was carried out using the linear-scale technique, in which each corresponding score was plotted on a straight line on which the scores equal to −5, 0 and +5 had been expressly specified. In addition, persons selected as panelists in these evaluation tests were persons who had been engaged in the development of a seasoning over a cumulative period of at least a half year, and who could so judge that the difference between γ-Glu-Cys-Gly and γ-Glu-Val-Gly, each of which was added to a solution having umami and salty taste, was about 10 times (this ability was confirmed at regular intervals). In this respect, the term “initial-middle taste” means the taste detected from 0 to 5 seconds after placing and maintaining each sample in each panelist's mouth, and the term “after taste” means that detected thereafter.

[5] = system: panelists; experiment: Quantitative organoleptic evaluation of kokumi-imparting activity in dried-bonito extract; assay type: in vivo, human; settings: for Intensity of Kokumi After Taste / Intensity of Kokumi Initial-Middle Taste: score scale -5 to +5, n=5
Protocol: The pH value of the samples used was adjusted to that of the control free of any test compound (i.e., the pH value of the latter +0.2). […] The scoring was carried out using the linear-scale technique, in which each corresponding score was plotted on a straight line on which the scores equal to −5, 0 and +5 had been expressly specified. […] In this respect, the term “initial-middle taste” means the taste detected from 0 to 5 seconds after placing and maintaining each sample in each panelist's mouth, and the term “after taste” means that detected thereafter.

[6] = 0.0001 g/dL in cow's milk (fat content 3.6%)
[7] = 0.0005 g/dL in cow's milk (fat content 3.6%)
[8] = 0.0001 g/dL in water with MSG 0.05, IMP 0.05, NaCl 0.5 g/dL
[9] = 0.0005 g/dL in water with MSG 0.05, IMP 0.05, NaCl 0.5 g/dL
[10] = 0.0001 g/dL in dried bonito extract 20.0 g/dL with common salt 0.5 g/dL
[11] = 0.0005 g/dL in dried bonito extract 20.0 g/dL with common salt 0.5 g/dL
[12] = 0.01 g/dL, reference standard for the scoring
[13] = 0.001 g/dL in cow's milk (fat content 3.6%)
[14] = 0.001 g/dL in water with MSG 0.05, IMP 0.05, NaCl 0.5 g/dL
[15] = 0.001 g/dL in dried bonito extract 20.0 g/dL with common salt 0.5 g/dL

SMILES: N[C@@H](CCC(=O)N[C@H]1CSCCC(C(=O)O)NC1=O)C(=O)O (stereo partly drawn) [Compound 21]
pEC50 [1]: 5.73

SMILES: C[C@@H]1SC[C@H](NC(=O)CC[C@H](N)C(=O)O)C(=O)N[C@@H]1C(=O)O [Compound 29]
pEC50 [1]: 6.24

SMILES: N[C@@H](CCC(=O)NC1CCCC(C(=O)O)NC1=O)C(=O)O (stereo partly drawn) [Compound 35]
pEC50 [1]: 6.70

SMILES: N[C@@H](CCC(=O)N[C@@H](CS)C(=O)O)C(=O)O [γ-Glu-Cys, reference compound]
pEC50 [1]: 6.34

SMILES: N[C@@H](CCC(=O)N[C@@H](CS)C(=O)NCC(=O)O)C(=O)O [γ-Glu-Cys-Gly, reference compound]
intensity of the kokumi, after taste [2, 12]: 3.0 | intensity of the kokumi, initial-middle taste [2, 12]: 3.0 | intensity of the kokumi, after taste [4, 12]: 3.0 | intensity of the kokumi, initial-middle taste [4, 12]: 3.0 | intensity of the kokumi, after taste [5, 12]: 3.0 | intensity of the kokumi, initial-middle taste [5, 12]: 3.0

SMILES: CC(C)[C@H](NC(=O)CC[C@H](N)C(=O)O)C(=O)NCC(=O)O [γ-Glu-Val-Gly, reference compound]
Comments for the Evaluation ([2]; 0.001 g/dL in cow's milk): The thickness feeling of the cow's | Intensity of Kokumi After Taste [2, 13]: 3.0 | Intensity of Kokumi Initial-Middle Taste [2, 13]: 2.5 | Intensity of Kokumi After Taste [4, 14]: 3.0 | Intensity of Kokumi Initial-Middle Taste [4, 14]: 2.5 | Comments for the Evaluation ([4]; 0.001 g/dL in water with MSG, IMP, NaCl): The kokumi is strengthened mainly | Intensity of Kokumi After Taste [5, 15]: 3.0 | Intensity of Kokumi Initial-Middle Taste [5, 15]: 2.5 | Comments for the Evaluation ([5]; 0.001 g/dL in dried bonito extract solution): The fish meat taste of the dried

The next lines start with results.

pEC50 [1]: 4.85
SMILES: N[C@@H](CCC(=O)N[C@H]1CSC[C@H](C(=O)O)NC1=O)C(=O)O [Compound 8a]

pEC50 [1]: 7.28 | CaSR agonist activity relative to that of γ-Glu-Cys [3]: about 9 times
SMILES: N[C@@H](CCC(=O)N[C@H]1CSC[C@@H](C(=O)O)NC1=O)C(=O)O [Compound 8b]
Intensity of Kokumi After Taste [2, 6]: 2.3 | Intensity of Kokumi Initial-Middle Taste [2, 6]: 2.4 | kokumi-imparting activity (in words) ([2]; 0.0001 to 0.0005 g/dL in cow's milk): showed its kokumi-imparting activity over the wide range of the foregoing added concentrations | Intensity of Kokumi After Taste [2, 7]: 3.5 | Intensity of Kokumi Initial-Middle Taste [2, 7]: 3.5 | Intensity of Kokumi After Taste [4, 8]: 2.4 | Intensity of Kokumi Initial-Middle Taste [4, 8]: 2.3 | kokumi-imparting activity (in words) ([4]; 0.0001 to 0.0005 g/dL in water with MSG, IMP, NaCl): showed its kokumi-imparting activity over the wide range of the foregoing added concentrations | Intensity of Kokumi After Taste [4, 9]: 3.5 | Intensity of Kokumi Initial-Middle Taste [4, 9]: 3.4 | Intensity of Kokumi After Taste [5, 10]: 2.5 | Intensity of Kokumi Initial-Middle Taste [5, 10]: 2.3 | kokumi-imparting activity (in words) ([5]; 0.0001 to 0.0005 g/dL in dried bonito extract solution): showed its kokumi-imparting activity over the wide range of the foregoing added concentrations | Intensity of Kokumi After Taste [5, 11]: 3.7 | Intensity of Kokumi Initial-Middle Taste [5, 11]: 3.5

pEC50 [1]: 4.70
SMILES: N[C@@H](CCC(=O)N[C@@H]1CSC[C@@H](C(=O)O)NC1=O)C(=O)O [Compound 8c]

pEC50 [1]: 5.71
SMILES: N[C@@H](CCC(=O)N[C@@H]1CSC[C@H](C(=O)O)NC1=O)C(=O)O [Compound 8d]
